In ChEMBL document CHEMBL6127070, “Design, synthesis, and molecular dynamic simulations of some novel benzo[d]thiazoles with anti-virulence activity against Pseudomonas aeruginosa” (Eur J Med Chem, 2024):
Calls of active or inactive are those of the source. The calls are words filed in the database; no cut-off is given here.

What was measured:
Pseudomonas aeruginosa [1] = assay: Antimicrobial activity against Pseudomonas aeruginosa ATCC 27853 assessed as growth inhibition zone by agar diffusion method; assay type: functional
Pseudomonas aeruginosa [2] = assay: Inhibition of biofilm formation in Pseudomonas aeruginosa assessed as absorbance by measuring OD at 570 nm at sub-MIC by crystal violet staining based analysis (reference value: 0.635 +/- 0.014); assay type: functional
Escherichia coli = assay: Antimicrobial activity against Escherichia coli ATCC 25922 assessed as growth inhibition zone by agar diffusion method; assay type: functional
Pseudomonas aeruginosa [3] = assay: Inhibition of biofilm formation in Pseudomonas aeruginosa at sub-MIC by crystal violet staining based analysis relative to control; assay type: functional
Pseudomonas aeruginosa [4] = assay: Antibacterial activity against Pseudomonas aeruginosa assessed as effect on bacterial growth at 9.375 microg/ml incubated for 24 hrs by growth curve analysis; assay type: functional, organism-based; settings: dose 9.375 µg/ml
Klebsiella pneumoniae = assay: Antimicrobial activity against Klebsiella pneumoniae ATCC 700603 assessed as growth inhibition zone by agar diffusion method; assay type: functional
Bacillus subtilis = assay: Antimicrobial activity against Bacillus subtilis ATCC 6633 assessed as growth inhibition zone by agar diffusion method; assay type: functional
Pseudomonas aeruginosa [5] = assay: Antivirulence activity in Pseudomonas aeruginosa assessed as inhibition of pyocyanin production at sub-MIC by chloroform-HCl extraction method relative to control; assay type: functional
Pseudomonas aeruginosa [6] = assay: Antivirulence activity in Pseudomonas aeruginosa assessed as inhibition of pyocyanin production by measuring OD at […] at sub-MIC by chloroform-HCl extraction method relative to control; assay type: functional
Pseudomonas aeruginosa [7] = assay: Antibacterial activity against Pseudomonas aeruginosa by CLSI protocol based broth microdilution method; assay type: functional; settings: for MIC: Pseudomonas aeruginosa
Candida albicans = assay: Antimicrobial activity against Candida albicans ATCC 60193 assessed as growth inhibition zone by agar diffusion method; assay type: functional
Staphylococcus aureus = assay: Antimicrobial activity against Staphylococcus aureus ATCC 43300 assessed as growth inhibition zone by agar diffusion method; assay type: functional
Pseudomonas aeruginosa [8] = assay: Antivirulence activity in Pseudomonas aeruginosa assessed as inhibition of rhamnolipids production at sub-MIC by spectrophotometric method relative to control; assay type: functional
[9] = target: T1, Transcriptional activator protein LasR (Pseudomonas aeruginosa (strain ATCC 15692 / PAO1 / 1C / PRS 101 / LMG12228), UniProt P25084); assay: Inhibition of Pseudomonas aeruginosa LasR in Escherichia coli DH5 transfected with lacZ reporter and JN105 production plasmid incubated for 4 hrs by beta-galactosidase reporter based miller test
T1 sequence (P25084 whole entry): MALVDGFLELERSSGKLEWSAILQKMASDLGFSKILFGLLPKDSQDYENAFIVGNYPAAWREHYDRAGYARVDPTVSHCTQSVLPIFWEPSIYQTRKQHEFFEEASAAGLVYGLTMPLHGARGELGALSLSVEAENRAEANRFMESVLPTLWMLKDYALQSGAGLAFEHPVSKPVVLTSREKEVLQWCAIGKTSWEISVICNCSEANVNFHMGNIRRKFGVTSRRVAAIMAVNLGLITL

Pseudomonas aeruginosa [10] = assay: Antibacterial activity against Pseudomonas aeruginosa assessed as effect on bacterial growth at 18.75 microg/ml incubated for 24 hrs by growth curve analysis; assay type: functional, organism-based; settings: dose 18.75 µg/ml
Pseudomonas aeruginosa [11] = assay: Antibacterial activity against Pseudomonas aeruginosa assessed as effect on bacterial growth at 37.5 microg/ml incubated for 24 hrs by growth curve analysis; assay type: functional, organism-based; settings: dose 37.5 µg/ml
Pseudomonas aeruginosa [12] = assay: Antibacterial activity against Pseudomonas aeruginosa assessed as bacterial mortality relative to control; assay type: functional

Row | SMILES | inhibition zone (IZ) (Pseudomonas aeruginosa [1]) [mm] | OD (Pseudomonas aeruginosa [2]) | inhibition zone (IZ) (Escherichia coli) [mm] | inhibition (INH) (Pseudomonas aeruginosa [3]) [%] | Activity (Pseudomonas aeruginosa [4]) | inhibition zone (IZ) (Klebsiella pneumoniae) [mm] | inhibition zone (IZ) (Bacillus subtilis) [mm] | inhibition (INH) (Pseudomonas aeruginosa [5]) [%] | OD (Pseudomonas aeruginosa [6]) | SubMIC (Pseudomonas aeruginosa [7]) [µg/mL] | MIC (Pseudomonas aeruginosa [7]) | inhibition zone (IZ) (Candida albicans) [mm] | inhibition zone (IZ) (Staphylococcus aureus) [mm] | inhibition (INH) (Pseudomonas aeruginosa [8]) [%] | IC50 [9] [nM] | Activity (Pseudomonas aeruginosa [10]) | inhibition (Pseudomonas aeruginosa [3]) | Activity (Pseudomonas aeruginosa [11]) | inhibition (Pseudomonas aeruginosa [8]) | mortality (Pseudomonas aeruginosa [12]) [%]
1 | N#C/C(=C\c1ccc(N2CCCCC2)cc1)c1nc2ccccc2s1 | 23 | 0.303 | 25 | 52.3 | inactive | 24 | 21 | 43.6 | 0.251 | 9.375 | 18.8 µg/mL | 25 | 24 | 34.9 |  |  |  |  |  | 
2 | Fc1ccc(-c2ccnc3c(-c4nc5ccccc5s4)cnn23)cc1 | 25 | 0.194 | 21 | 69.4 | inactive | 26 | 25 | 69.4 | 0.136 | 9.375 | 18.8 µg/mL | 30 | 24 | 54.3 | 1100 |  |  |  |  | 
3 | c1ccc(-c2ccnc3c(-c4nc5ccccc5s4)cnn23)cc1 | 20 | 0.472 | 19 | 25.7 |  | 21 | 17 | 22.2 | 0.346 | 18.75 | 37.5 µg/mL | 21 | 20 | 13.3 |  | inactive |  |  |  | 
4 | Cc1cc(C)n2ncc(-c3nc4ccccc4s3)c2n1 | 17 | 0.631 | 17 |  |  | 19 | 15 | 8.5 | 0.407 | 37.5 | 75 µg/mL | 20 | 18 |  |  |  | inactive | inactive | inactive | 
5 | Cc1nc2c(-c3nc4ccccc4s3)cnn2c(C)c1Cl | 21 | 0.406 | 21 | 36.1 |  | 22 | 21 | 31.5 | 0.305 | 18.75 | 37.5 µg/mL | 22 | 19 | 21.2 |  | inactive |  |  |  | 
6 | C[C@@H](O)[C@H]1C(=O)N2C(C(=O)O)=C(SCCNC=N)C[C@H]12 [IMIPENEM ANHYDROUS] | 12 |  | 22 |  |  | 18 | 20 |  |  |  | 93.9 µM |  | 24 |  |  |  |  |  |  | 
7 | Cc1ccc(-c2ccnc3c(-c4nc5ccccc5s4)cnn23)cc1 | 24 | 0.26 | 22 | 59.1 | inactive | 26 | 20 | 59.6 | 0.18 | 9.375 | 18.8 µg/mL | 28 | 26 | 45.3 |  |  |  |  |  | 
8 | COc1ccc(-c2ccnc3c(-c4nc5ccccc5s4)cnn23)cc1 | 22 | 0.342 | 22 | 46.1 | inactive | 19 | 19 | 39.8 | 0.268 | 9.375 | 18.8 µg/mL | 23 | 17 | 28.6 |  |  |  |  |  | 
9 | O=C(O)c1cn(C2CC2)c2cc(N3CCNCC3)c(F)cc2c1=O [CIPROFLOXACIN] |  |  |  |  |  |  |  |  |  |  |  |  |  |  |  |  |  |  |  | 16.99
10 | Brc1ccc(-c2ccnc3c(-c4nc5ccccc5s4)cnn23)cc1 | 19 | 0.508 | 18 | 20 |  | 17 | 16 | 15.5 | 0.376 | 18.75 | 37.5 µg/mL | 20 | 19 | 9.5 |  | inactive |  |  |  | 
11 | Nc1[nH]ncc1-c1nc2ccccc2s1 | 16 | 0.612 | 16 |  |  | 18 | 15 | 4.5 | 0.425 | 37.5 | 75 µg/mL | 17 | 15 |  |  |  | inactive | inactive | inactive | 
12 | CC[C@H]1OC(=O)[C@H](C)[C@@H](O[C@H]2C[C@@](C)(OC)[C@@H](O)[C@H](C)O2)[C@H](C)[C@@H](O[C@@H]2O[C@H](C)C[C@H](N(C)C)[C@H]2O)[C@](C)(OC)C[C@@H](C)C(=O)[C@H](C)[C@@H](O)[C@]1(C)O [CLARITHROMYCIN] |  |  |  |  |  |  |  |  |  |  |  |  |  |  |  |  |  |  |  | 29.11
13 | CN1CCN(c2ccc(/C=C(\C#N)c3nc4ccccc4s3)cc2)CC1 | 26 | 0.146 | 26 | 77 | inactive | 27 | 25 | 74.6 | 0.113 | 9.375 | 18.8 µg/mL | 30 | 28 | 58.5 | 1370 |  |  |  |  | 
14 | OC(Cn1cncn1)(Cn1cncn1)c1ccc(F)cc1F [FLUCONAZOLE] |  |  |  |  |  |  |  |  |  |  |  | 30 |  |  |  |  |  |  |  | 
15 | N#C/C(=C\c1ccc(N2CCOCC2)cc1)c1nc2ccccc2s1 | 21 | 0.383 | 24 | 39.7 |  | 20 | 19 | 35.1 | 0.289 | 18.75 | 37.5 µg/mL | 24 | 23 | 24.3 |  | inactive |  |  |  | 
16 | N#C/C(=C\c1ccc(N2CCCC2)cc1)c1nc2ccccc2s1 | 25 | 0.229 | 24 | 63.9 | inactive | 26 | 22 | 64.9 | 0.156 | 9.375 | 18.8 µg/mL | 28 | 27 | 51 | 1550 |  |  |  |  | 
17 | CC1CCN(c2ccc(/C=C(\C#N)c3nc4ccccc4s3)cc2)CC1 | 22 | 0.317 | 22 | 50.1 | inactive | 27 | 20 | 40.7 | 0.264 | 9.375 | 18.8 µg/mL | 24 | 22 | 30.9 |  |  |  |  |  | 
18 | Clc1ccc(-c2ccnc3c(-c4nc5ccccc5s4)cnn23)cc1 | 23 | 0.287 | 20 | 54.8 | inactive | 25 | 21 | 53.9 | 0.205 | 9.375 | 18.8 µg/mL | 26 | 25 | 42.5 |  |  |  |  |  | 
